Experimental data reported in patent US20210223252A1, “METHODS FOR PROTEOMIC PROFILING USING NON-NATURAL AMINO ACIDS” (California Institute of Technology, priority 2004, published 2021).

Tests used:
[1] = tested on: E. coli and mammalian cells; test: Protein degradation upon introduction of AHA; format: cell-based; details: studies in E. coli and experiments in mammalian cells
[2] = tested on: HEK293 cells; test: Ubiquitin signal on Western blot of whole lysates (protein degradation); format: cell-based; details: treated two hours
Protocol: (§1) To show the specificity of this technique for the detection of newly synthesized proteins, HEK293 cells were incubated for 2 hrs with AHA in the presence or absence of a protein synthesis inhibitor (Anisomycin or Cycloheximide). After incubation, cells were lysed and subjected to [3+2]cycloaddition with the biotin-bearing alkyne-linker Biotin-PEO-Propargylamide, followed by Western blot analysis with an anti-Biotin-antibody. […] The potential for increased protein degradation was measured by examining the ubiquitin signal strength on a Western blot from whole lysates of HEK293 cells, which were treated with AHA, methionine or incubation buffer for two hours.

[3] = tested on: dissociated hippocampal neurons; test: AHA toxicity by whole neuron morphology (GFP reporter); format: cell-based, rat; details: 2 hrs incubation
Protocol: Dissociated hippocampal neuron cultures were prepared from newborn rat pups (PO) as outlined in (Banker and Goslin, 1990), Neurons were plated at a density of 15,000-45,000 cells/cm^2 onto poly-D-lysine coated cell culture dishes or onto poly-D-lysine and growth factor reduced matrigel (BD Biosciences) coated polycarbonate nets with a pore size of 3 (Transwell, Corning) for the preparation of isolated dendrites. The cultures were maintained and allowed to mature in growth medium (Neurobasal-A supplemented with B27 and GlutaMAX-1) for 14 to 21 days before use. The use of this growth medium suppressed glial proliferation, which was even more reduced by application of Ara-C (5 μM final concentration). To supplement glial neurotrophic factors, 25% conditioned growth media from glial and cortical cultures were added to the growth media. Isolated dendrites were obtained from Transwell cultures by removing the cell body layer with a sterile cell lifter after change to HBS. For immunolabeling after AHA-incorporation and cycloaddition with BiotinCyclooctyne, neurons are fixed at room temperature with 4% paraformaldehyde for 20 minutes. […] Images are recorded through standard emission filters at contrast settings for which the crossover between the two channels is negligible. […]

[4] = tested on: HEK293 cells; test: Detection of newly synthesized proteins: AHA labelling, [3+2]cycloaddition with Biotin-PEO-Propargylamide, anti-Biotin Western blot; format: cell-based; details: HEK293 cells incubated 2 hrs with AHA in the presence of the protein synthesis inhibitor
Protocol: In embodiments using [3+2] Cycloaddition, the following exemplary protocol may be used. Briefly, AHA, Biotin-PEO-Propargylamide and the triazole ligand were prepared as described previously. The tandem featured alkyne tag was synthesized by GenScript Corporation. Biotin-Cyclooctyne is a generous gift from Carolyn Bertozzi. DIO-L-leucine was purchased from Sigma. In all culture experiments, growth medium was removed from HEK293 cells, whole neuronal cultures or isolated dendrites were replaced with HEPES-buffered solution (HBS) with 2.86 mM AHA, and 2.86 mM methionine for control experiments. After incubation at 37° C., 5% CO2, cells were washed with PBS-MC (1 mMMgCl2, 0.1 mM CaCl2 in PBS) to remove excess amounts of AHA and methionine. SNS and other biochemical fractions are incubated with 2.86 mM AHA or 2.86 mM methionine under agitation at 37° C. and washed in StimBuffer after incubation. […]
as §1, with “Cycloheximide).” for “Cycloheximide). After incubation, cells were lysed and subjected to [3+2]cycloaddition with the biotin-bearing alkyne-linker Biotin-PEO-Propargylamide, followed by Western blot analysis with an anti-Biotin-antibody.”

SMILES	increased protein degradation [1]	ubiquitination compared to buffer or methionine controls [2]	gross morphology of neurons compared to methionine controls ([3]; 12 DIV neurons expressing GFP reporter)	toxicity to neurons ([3]; primary/dissociated hippocampal neuronal cultures, equimolar AHA or methionine control)	anti-Biotin Western blot signal of AHA-labelled newly synthesized proteins [4]
[N-]=[N+]=NCC[C@H](N)C(=O)O [AHA, azidohomoalanine]	no evidence of increased protein degradation	No increased ubiquitination	no change in the gross morphology	not toxic	–
COc1ccc(C[C@H]2NC[C@H](O)[C@H]2OC(C)=O)cc1 [Anisomycin]	–	–	–	–	No signal was detected
C[C@@H]1C[C@@H]([C@H](O)CC2CC(=O)NC(=O)C2)C(=O)[C@@H](C)C1 [Cycloheximide]	–	–	–	–	No signal was detected
